Biological target: CsTMR (triphenylmethane reductase) (Citrobacter sp. MY-5, UniProt Q2TNI4)
Test: decolorization in bienzyme fed-batch system; OD616 assay
Assay type: biochemical
Settings: glucose 200 mM, NAD 1 mM, malachite green 3 µM, BzGDH for NADH regeneration, 25 °C; OD616 assay: 200 µM NADH, 20 µM malachite green, pH 7.0

Sequence of CsTMR (triphenylmethane reductase) (Q2TNI4 entry or part of it): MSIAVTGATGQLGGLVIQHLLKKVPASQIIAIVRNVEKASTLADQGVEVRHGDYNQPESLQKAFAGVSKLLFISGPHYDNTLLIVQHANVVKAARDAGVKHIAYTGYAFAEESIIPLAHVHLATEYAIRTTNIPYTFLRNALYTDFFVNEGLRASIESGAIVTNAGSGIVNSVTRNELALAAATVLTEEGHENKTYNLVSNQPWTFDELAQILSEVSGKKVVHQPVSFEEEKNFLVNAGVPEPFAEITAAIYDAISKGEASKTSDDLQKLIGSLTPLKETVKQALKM

## CN(C)c1ccc(C(=C2C=CC(=[N+](C)C)C=C2)c2ccccc2)cc1 [malachite green]
  decolorization in bienzyme fed-batch system; OD616 assay: The activity of CsTMR was assayed by monitoring the OD616 of malachite green

— PMC6928599, “Construction of a Robust Cofactor Self-Sufficient Bienzyme Biocatalytic System for Dye Decolorization and its Mathematical Modeling” (International Journal of Molecular Sciences, 2019)
